Measurements reported in PMC3534778 (European journal of pharmacology, 2012).
Values joined by “and” are separate entries in the source; they are usually repeats but may differ in a detail not shown here. Equal entries are not always repeated. “Also recorded” adds a separate entry of the source. Where two headings read alike, the source gives them in different places.

Key:
[1] = molecular target: rat α7-nicotinic acetylcholine receptor (Rattus norvegicus, UniProt Q05941); type: cell-based
[2] = molecular target: rat α3β4-nicotinic acetylcholine receptor (Rattus norvegicus, UniProt P04757+P12392); type: cell-based; settings: read-out: IC50, inhibition of (S)-nicotine-induced whole-cell current
Sequence of rat α3β4-nicotinic acetylcholine receptor (P04757 26-499): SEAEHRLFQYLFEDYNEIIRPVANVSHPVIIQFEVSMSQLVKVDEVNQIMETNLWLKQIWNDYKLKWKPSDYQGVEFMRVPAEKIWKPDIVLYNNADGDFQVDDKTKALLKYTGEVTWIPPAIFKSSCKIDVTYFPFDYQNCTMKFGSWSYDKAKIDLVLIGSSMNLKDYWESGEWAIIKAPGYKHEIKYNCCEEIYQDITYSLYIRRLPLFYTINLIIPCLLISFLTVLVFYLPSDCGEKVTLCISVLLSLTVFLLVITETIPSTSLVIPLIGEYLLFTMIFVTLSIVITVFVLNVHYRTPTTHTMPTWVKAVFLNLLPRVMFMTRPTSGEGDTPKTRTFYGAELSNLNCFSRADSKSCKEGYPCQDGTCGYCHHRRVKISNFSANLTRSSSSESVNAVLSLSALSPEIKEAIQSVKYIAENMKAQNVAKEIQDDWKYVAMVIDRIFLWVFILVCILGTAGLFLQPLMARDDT
Sequence of rat α3β4-nicotinic acetylcholine receptor (P12392 21-495): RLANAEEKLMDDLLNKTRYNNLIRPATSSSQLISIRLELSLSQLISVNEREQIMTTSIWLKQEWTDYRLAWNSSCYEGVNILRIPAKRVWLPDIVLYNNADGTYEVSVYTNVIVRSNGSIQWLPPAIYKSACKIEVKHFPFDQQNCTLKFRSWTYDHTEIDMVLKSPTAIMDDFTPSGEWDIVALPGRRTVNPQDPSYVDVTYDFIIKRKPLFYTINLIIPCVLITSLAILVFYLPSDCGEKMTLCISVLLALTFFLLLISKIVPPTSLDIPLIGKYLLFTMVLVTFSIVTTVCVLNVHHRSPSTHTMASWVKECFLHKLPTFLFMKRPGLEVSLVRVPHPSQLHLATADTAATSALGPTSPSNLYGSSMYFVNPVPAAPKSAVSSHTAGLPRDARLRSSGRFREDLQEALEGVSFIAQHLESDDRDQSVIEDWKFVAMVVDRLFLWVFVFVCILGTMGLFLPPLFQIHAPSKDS

[3] = human, in vivo; cited from earlier work
[4] = molecular target: α7-nicotinic acetylcholine receptor (Rattus norvegicus, UniProt Q05941); type: binding
Sequence of α7-nicotinic acetylcholine receptor (Q05941 23-502): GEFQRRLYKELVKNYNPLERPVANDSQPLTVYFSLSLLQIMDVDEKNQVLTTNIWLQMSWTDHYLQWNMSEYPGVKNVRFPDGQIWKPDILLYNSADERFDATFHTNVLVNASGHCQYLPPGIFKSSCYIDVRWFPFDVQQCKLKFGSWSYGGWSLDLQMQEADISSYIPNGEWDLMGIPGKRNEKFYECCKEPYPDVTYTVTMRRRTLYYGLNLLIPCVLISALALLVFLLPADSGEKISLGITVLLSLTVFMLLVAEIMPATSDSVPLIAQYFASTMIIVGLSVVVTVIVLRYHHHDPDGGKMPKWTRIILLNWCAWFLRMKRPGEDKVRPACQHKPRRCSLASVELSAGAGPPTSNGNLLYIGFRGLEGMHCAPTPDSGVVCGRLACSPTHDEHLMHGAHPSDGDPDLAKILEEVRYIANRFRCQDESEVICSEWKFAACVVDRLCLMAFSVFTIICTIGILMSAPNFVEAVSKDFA

[5] = molecular target: α4β2-nicotinic acetylcholine receptor (Homo sapiens, UniProt P17787+P43681); experiment: Acetylcholine-evoked currents in α4β2-nicotinic acetylcholine receptor; type: cell-based
Sequence of α4β2-nicotinic acetylcholine receptor (P43681 29-627 limits assumed): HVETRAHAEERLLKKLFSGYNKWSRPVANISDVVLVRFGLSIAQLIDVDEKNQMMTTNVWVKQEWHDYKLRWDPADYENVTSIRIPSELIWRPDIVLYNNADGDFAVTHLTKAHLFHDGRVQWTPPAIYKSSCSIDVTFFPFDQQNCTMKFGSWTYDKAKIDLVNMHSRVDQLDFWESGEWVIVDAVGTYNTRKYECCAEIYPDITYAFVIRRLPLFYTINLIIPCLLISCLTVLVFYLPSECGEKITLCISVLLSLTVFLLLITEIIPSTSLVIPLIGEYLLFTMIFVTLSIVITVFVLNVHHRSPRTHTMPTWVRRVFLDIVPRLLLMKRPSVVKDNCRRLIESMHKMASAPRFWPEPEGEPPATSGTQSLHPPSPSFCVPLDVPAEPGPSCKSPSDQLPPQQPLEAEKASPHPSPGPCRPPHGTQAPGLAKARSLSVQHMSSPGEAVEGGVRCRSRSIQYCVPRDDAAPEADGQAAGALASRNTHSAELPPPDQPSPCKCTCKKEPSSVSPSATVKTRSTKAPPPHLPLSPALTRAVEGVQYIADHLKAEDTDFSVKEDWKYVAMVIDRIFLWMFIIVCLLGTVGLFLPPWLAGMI
Sequence of α4β2-nicotinic acetylcholine receptor (P17787 26-502 limits assumed): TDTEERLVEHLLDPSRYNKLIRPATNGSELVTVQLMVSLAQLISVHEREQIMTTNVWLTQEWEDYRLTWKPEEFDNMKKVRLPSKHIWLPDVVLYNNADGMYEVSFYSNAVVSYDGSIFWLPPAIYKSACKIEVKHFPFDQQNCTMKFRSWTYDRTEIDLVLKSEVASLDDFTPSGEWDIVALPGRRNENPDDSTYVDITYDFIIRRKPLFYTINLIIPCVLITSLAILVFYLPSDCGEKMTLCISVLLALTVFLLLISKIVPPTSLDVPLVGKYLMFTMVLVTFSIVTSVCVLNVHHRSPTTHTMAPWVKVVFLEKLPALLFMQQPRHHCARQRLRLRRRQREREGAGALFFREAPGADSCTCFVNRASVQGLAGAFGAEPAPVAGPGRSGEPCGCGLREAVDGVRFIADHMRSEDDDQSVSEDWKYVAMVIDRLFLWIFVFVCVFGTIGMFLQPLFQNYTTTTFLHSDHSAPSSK

NMDA receptor = type: binding, rat

Sequence of rat α7-nicotinic acetylcholine receptor (Q05941 23-502): as the sequence (Q05941 23-502) above

For `CNC1(c2ccccc2Cl)CCCCC1=O` (racemic) [(R,S)-Ketamine, reference compound], the “Effect on acetylcholine-induced current” value [1] is listed as “inactive; also recorded: no observable effect”, the IC50 [2] is listed as 3.1 µM and the “Patients reporting a positive response” value [3] is listed as 41%. For the same molecule, the Response rate [3] was 30%.

For `NC1(c2ccccc2Cl)CCC=CC1=O` (racemic) [(R,S)-dehydronorketamine], the “Current activation (agonist effect)” value [1] was “No measurable effect”, the “Hill coefficient nH” value [1] was 0.66 ± 0.05 and the “Inhibition of acetylcholine-induced current” value [1] was ~ 60%. The “Mean current evoked by 280 μM acetylcholine, normalized to acetylcholine alone” value [1] was 0.407 and 0.205, the “Voltage dependence of the inhibitory effect” value [1] was “voltage-independent” and the “Inhibition of ACh-induced whole-cell current” value ([1]; 0.03 µM) was 45%. The IC50 ([1]; read-out: IC50, inhibition of acetylcholine-evoked current) was 0.055 ± 0.006 µM, the IC50 [2] was > 200 µM and the “Displacement of [3H]-epibatidine” value [4] was “did not competitively displace”. The “Displacement of [125I]-α-bungarotoxin” value [4] was “did not competitively displace” and the “Effect on acetylcholine-evoked currents” value [5] was “no effect”.

With `NC1(c2ccccc2Cl)CCCCC1=O` (racemic) [(R,S)-norketamine] the “Inhibition of acetylcholine-induced current” value ([1]; 100 nM compound, 280 μM acetylcholine) was ~ 45%, the “Mean current evoked by 280 μM acetylcholine, normalized to acetylcholine alone” value ([1]; 100 nM compound, −80 mV, n = 4, fraction of current remaining) was 0.548 and the “Mean current evoked by 280 μM acetylcholine, normalized to acetylcholine alone” value ([1]; 1000 nM compound, −80 mV, n = 4, fraction of current remaining) was 0.287. For the same molecule, the IC50 [2] was 9.1 µM.

For `N[C@@]1(c2ccccc2Cl)CCC[C@@H](O)C1=O` [(2R,6R)-hydroxynorketamine], the “Mean current evoked by 280 μM acetylcholine, normalized to acetylcholine alone” value [1] was 0.354 and 0.489, the IC50 [2] was > 200 µM and the Ki (NMDA receptor) was > 100 µM.

In the case of `N[C@]1(c2ccccc2Cl)CCC[C@H](O)C1=O` [(2S,6S)-hydroxynorketamine], the “Mean current evoked by 280 μM acetylcholine, normalized to acetylcholine alone” value [1] is reported as 0.461 and 0.361, the IC50 [2] is reported as > 200 µM and the Ki (NMDA receptor) is reported as 21 µM and 21.2 µM.

In the case of `N[C@@]1(c2ccccc2Cl)CCC=CC1=O` [(R)-Dedhydronorketamine, (R)-dehydronorketamine], the “Displacement of [3H]-epibatidine” value [4] is reported as “not displaced”, the “Displacement of [125I]-α-bungarotoxin” value [4] is reported as “did not displace” and the Ki (NMDA receptor) is reported as 74.5 µM.

For `N[C@@]1(c2ccccc2Cl)CCCCC1=O` [(R)-norKetamine, (R)-norketamine], the Ki (NMDA receptor) was 26.5 µM.

With `N[C@]1(c2ccccc2Cl)CCC=CC1=O` [(S)-Dehydronorketamine, (S)-dehydronorketamine] the “Displacement of [3H]-epibatidine” value [4] was “not displaced”, the “Displacement of [125I]-α-bungarotoxin” value [4] was “did not displace” and the Ki (NMDA receptor) was 39 µM.

For `N[C@]1(c2ccccc2Cl)CCCCC1=O` [(S)-norKetamine, (S)-norketamine], the Ki (NMDA receptor) was 2.25 ± 0.22 µM.
